Assay results from paper PMC10754118, “Lipophilic Nucleoside Triphosphate Prodrugs of Anti‐HIV Active Nucleoside Analogs as Potential Antiviral Compounds” (Advanced Science, 2023).
Like-named read-outs stand apart in the source and are kept apart here.

Key:
[1] = Chemical hydrolysis in phosphate buffer saline (PBS, pH 7.3); assay type: physicochemical; settings: PBS pH 7.3, 37 °C, read-out: PBS pH 7.3 t 1/2 (converted)
Description: (§1) Part 4. Chemical Hydrolysis of TriPPPro-compounds 10 and 20.
Second prepare 1.9 mM hydrolysis […]
(§2) Then, aliquots of 50 µL human

in vitro [2] = settings: human
Description: The hydrolysis properties of TriPPPro‐compounds 10 and 20 were evaluated in phosphate buffer saline (PBS, pH 7.3), pig liver esterase (PLE) or CEM/0 cell extracts. In both cases, hydrolysis products were analyzed by means of analytical RP18‐HPLC and the hydrolysis half‐lives (Table 1 , t1/2 ) of TriPPPro‐compounds 10 and 20 were calculated after complete consumption of the starting materials.
The hydrolysis of TriPPPro‐compounds 10 and 20 was carried out with CEM/0 cell extracts as well. […]
Part 6. Enzyme-Catalyzed Hydrolysis of TriPPPro-compounds 10 and 20 in CEM Cell […]
First prepare 3.0 mM hydrolysis solutions of Tri PPPro-compounds 10 and 20 in DMSO and H2O: 21 µL stock solution (50 mM in DMSO) and 154 µL DMSO, and 175 µL Milli-Q water. Three-twelve different samples (20 µL 3.0 mM hydrolysis solutions) were prepared in 2 mL Eppendorf® vials. Then, aliquots of 50 µL human CEM cell extracts were added to these samples and the reaction was started. The samples were incubated at 37 °C in a thermomixer for different time periods. The reaction was stopped by addition of 150 µL MeOH and kept on ice for 5 min. After centrifugation at 14,000 rpm for 12 min, the supernatants were filtered (Chromafil RC-20/15 MS, 0.2 μm) and stored in liquid nitrogen. When testing, aliquots of 60 µL (injection volume) were analyzed by analytical HPLC (HPLC Method). The calculation of t1/2 was obtained using Origin again.
(§3) Part 7. Hydrolysis of TriPPPro-compounds 10 and 20 in human plasma.
µL 3.0 mM hydrolysis solutions) were prepared in 2 mL Eppendorf® vials.

in vitro [3] = settings: human, CEM/0 cells (wild-type CD4+ T-cells)
Description: All TriPPPro‐compounds 10 and 20, as well as their parent nucleosides and the corresponding NTPs, were evaluated for their antiviral activity (expressed as EC50 values) against HIV‐1 (wild‐type CEM/0 cells) and HIV‐2 (wild‐type CEM/0 cells and thymidine kinase‐deficient (CEM/TK^−) cells) with concomitant determination of cytotoxicity in the same cell line (Table 3 ).

HIV‐2 [ROD)] = test: Anti-HIV activity, HIV-2 in thymidine kinase-deficient CEM/TK^− cells; assay type: cell-based
Description: (§4) Part 9. Anti-HIV activity assay.
(§5) The produce was used as previously reported. 5 Inhibition of HIV-1(IIIB)- and HIV-2(ROD)-induced cytopathogenicity in wild-type CEM/0 and thymidine kinase-deficient CEM/TK– cell cultures was measured in […]
(§6) containing appropriate dilutions of the test compounds. After 4−5 days of incubation at 37 °C in a CO2-controlled humidified atmosphere, CEM giant (syncytium) cell formation was examined microscopically. The […]
(§7) giant cell formation by 50%.
(§8) Part 10. Primer-extension assays. […]

HIV‐1 [HE] = test: Anti-HIV activity, HIV-1 in wild-type CEM/0 cells; assay type: cell-based; settings: Human immunodeficiency virus 1, CCRF-CEM, read-out: Antiviral activity CEM/0 HIV‐1 [HE] EC50
HIV‐2 [ROD] = test: Anti-HIV activity, HIV-2 in wild-type CEM/0 cells; assay type: cell-based; settings: Human immunodeficiency virus 2, CCRF-CEM, read-out: Antiviral activity CEM/0 HIV‐2 [ROD] EC50
Description: as §4, §5, §6, §7, §8

pig liver esterase (PLE) = test: Hydrolysis with pig liver esterase (PLE); assay type: in vitro ADME; settings: pig liver esterase (PLE) in PBS, PLE in PBS pH 7.3, 37 °C, read-out: PLE t 1/2 (converted)
Excerpt: Next, TriPPPro‐compounds 10 and 20 were exposed to PLE in PBS (pH 7.3) and the half‐lives of TriPPPro‐compounds 10 and 20 are listed in Table 1. […] In contrast, the cleavage of the AB (C4) masking group in TriPPPro‐compounds 10by–hy and 10bz–hz was triggered by ester hydrolysis and yielded the corresponding γ‐alkylated nucleoside triphosphate derivatives 20 (Figure 3B,D) and 21 (Figures S17 and S18, Supporting Information), respectively. […] Moreover, a very small amount of NDPs was observed, probably due to a reaction involving a nucleophilic reaction at the γ‐phosphate or γ‐phosphonate moiety (pathways d and f, Scheme 5). […]
as §1
Second prepare 1.9 mM hydrolysis
Part 5. Hydrolysis of TriPPPro-compounds 10 and 20 with PLE .
Second, 125 µL DMSO and 833 µL
62.5 µL of PLE solution in PBS (100
mixture was stored in the freezer (- 30 °C).
by analytical HPLC (HPLC Method).
similar to that for the chemical hydrolysis studies. […]
as §2

in vitro [4] = test: in vitro
Description: First prepare 50 mM solutions of TriPPPro-compounds 10 and 20 in DMSO. […]
First prepare 3.0 mM hydrolysis solutions of Tri PPPro-compounds 10 and 20 in DMSO and H2O: 21 µL stock solution (50 mM in DMSO) and 154 µL DMSO, and 175 µL Milli-Q water. Three-twelve different samples (20 […]
The calculation of t1/2 was obtained using Origin again.
as §3
µL 3.0 mM hydrolysis solutions) were prepared in 2 mL Eppendorf® vials. Then, aliquots of 50 µL human Plasma (Heparin or Citrate) were added to these samples and the reaction was started. The samples were […]
incubated at 37 °C in a thermomixer for different time periods. The reaction was stopped by addition of 150 µL MeOH and kept on ice for 5 min. After centrifugation at 14,000 rpm for 22 min, the supernatants were filtered (Chromafil RC-20/15 MS, 0.2 μm) and stored in liquid nitrogen. When testing, aliquots of 25 0r 30 µL (injection volume) were analyzed by analytical HPLC (HPLC Method). The calculation of t1/2 was obtained using Origin […]
Part 8. Preparation of cell extracts and human plasma. […]

[5] = Human immunodeficiency virus 2, CEM-TK(-), thymidine kinase-deficient CEM/TK^− cells, mean ±SD n = 2–3; read-out: Antiviral activity CEM/TK^− HIV‐2 [ROD)] EC50
[6] = wild-type CEM/0 cells, mean ±SD n = 2–3

Compound	half-life at 1.9 mM [1] [days]	half-life at 0.86 mM (in vitro [2]) [h]	EC50 (HIV‐2 [ROD)]; [5]) [µM]	EC50 (HIV‐1 [HE]; [6]) [µM]	EC50 (HIV‐2 [ROD]; [6]) [µM]	half-life at 0.45 mM (pig liver esterase (PLE)) [h]	CC50 (in vitro [3]) [µM]	Plasma (Citrate) t 1/2 (in vitro [4]; citrate-stabilized human plasma, 37 °C) [h]	Plasma (Heparin) t 1/2 (in vitro [4]; heparin-stabilized human plasma, 37 °C) [h]	t 1/2 in human plasma (over heparin and citrate plasma) (in vitro [4]; human plasma 37 °C, heparin and citrate taken together) [h]	EC50 (HIV‐2 [ROD)]; Human immunodeficiency virus 2, CEM-TK(-), read-out: Antiviral activity CEM/TK^− HIV‐2 [ROD)] EC50) [µM]	EC50 (HIV‐1 [HE]) [µM]	EC50 (HIV‐2 [ROD]) [µM]
CCCCCCCCCCCCCCCCCCP(=O)(OCc1ccc(OC(=O)CCCC)cc1)OP(=O)(O)OP(=O)(O)OC[C@H]1O[C@@H](n2cc(Cl)c(=O)[nH]c2=O)C[C@@H]1F (stereo partly drawn) [10dz]	27.9	> 10	4.66 ± 3.42	2.02 ± 0.8	0.51 ± 0.14	1.3	54.9	–	–	–	–	–	–
CCCCCCCCCCCCCCCCCCOP(=O)(OCCCC)OP(=O)(O)OP(=O)(O)OC[C@H]1O[C@@H](n2cc(/C=C/Br)c(=O)[nH]c2=O)C[C@@H]1O (stereo partly drawn) [10gv]	> 83.3	> 10	36.5 ± 34.7	> 10	5.37 ± 0.69	> 150	48 ± 4.2	–	–	–	–	–	–
Cc1cn([C@H]2C[C@H](N=[N+]=[N-])[C@@H](COP(=O)(O)O)O2)c(=O)[nH]c1=O [AZTMP, reference compound]	–	–	–	–	–	–	–	4.5	2.0	2.0 to 4.5	–	–	–
CCCCCCCCCCCCCCCCCCOP(=O)(OCc1ccc(OC(=O)CCCC)cc1)OP(=O)(O)OP(=O)(O)OC[C@H]1O[C@@H](n2cc(/C=C/Br)c(=O)[nH]c2=O)C[C@@H]1O (stereo partly drawn) [10gy]	25	–	11.1 ± 1.34	8.57 ± 5.02	2.87 ± 1.72	0.3	52.1	–	–	–	–	–	–
CCCCCCCCCCCCCCCCCCP(=O)(OCCCC)OP(=O)(O)OP(=O)(O)OC[C@H]1O[C@@H](n2cc(C)c(=O)[nH]c2=O)C[C@@H]1N=[N+]=[N-] (stereo partly drawn) [10bx]	> 62.5	> 20	–	–	–	> 150	> 100	–	–	–	1.19 ± 0.79	0.12 ± 0.088	0.031 ± 0.005
CCCCCCCCCCCCCCCCCCOP(=O)(OCc1ccc(OC(=O)CCCC)cc1)OP(=O)(O)OP(=O)(O)OC[C@H]1O[C@@H](n2cc(Cl)c(=O)[nH]c2=O)C[C@@H]1F (stereo partly drawn) [10dy]	18.5	2.9	2.53 ± 1.38	7.32 ± 2.28	1.95 ± 0.86	0.19	52.1	–	–	–	–	–	–
CCCCCCCCCCCCCCCCCCOP(=O)(OCCCC)OP(=O)(O)OP(=O)(O)OC[C@H]1O[C@@H](n2cc(Cl)c(=O)[nH]c2=O)C[C@@H]1F (stereo partly drawn) [10dv]	> 83.3	> 20	> 20	2.28 ± 0.68	4.81 ± 4.61	> 150	50.1 ± 10.2	–	–	–	–	–	–

Continued, in another order:

half-life at 1.9 mM [1] [days]	half-life at 0.86 mM (in vitro [2]) [h]	EC50 (HIV‐2 [ROD)]; [5]) [µM]	EC50 (HIV‐1 [HE]; [6]) [µM]	EC50 (HIV‐2 [ROD]; [6]) [µM]	half-life at 0.45 mM (pig liver esterase (PLE)) [h]	Compound	CC50 (in vitro [3]) [µM]	Plasma (Citrate) t 1/2 (in vitro [4]; citrate-stabilized human plasma, 37 °C) [h]	Plasma (Heparin) t 1/2 (in vitro [4]; heparin-stabilized human plasma, 37 °C) [h]	t 1/2 in human plasma (over heparin and citrate plasma) (in vitro [4]; human plasma 37 °C, heparin and citrate taken together) [h]	EC50 (HIV‐2 [ROD)]; Human immunodeficiency virus 2, CEM-TK(-), read-out: Antiviral activity CEM/TK^− HIV‐2 [ROD)] EC50) [µM]	EC50 (HIV‐1 [HE]) [µM]	EC50 (HIV‐2 [ROD]) [µM]
> 83.3	> 30	0.051 ± 0.069	0.35 ± 0.25	0.22 ± 0.02	> 150	CCCCCCCCCCCCCCCCCCOP(=O)(O)OP(=O)(O)OP(=O)(O)OC[C@@H]1O[C@H](n2cc(F)c(N)nc2=O)CS1 [20c, γ‐C18‐FTCTP]	63.4 ± 13.7	–	–	–	–	–	–
> 83.3	> 20	3.56 ± 1.88	0.092 ± 0.082	0.39 ± 0.3	> 150	CCCCCCCCCCCCCCCCCCOP(=O)(O)OP(=O)(O)OP(=O)(O)OC[C@H]1O[C@@H](n2ccc(=O)[nH]c2=O)C[C@@H]1F [20e, γ‐C18‐FddUTP]	63.7 ± 13.6	–	–	–	–	–	–
> 83.3	> 20	62.1	3.14 ± 2.93	2.24 ± 0.65	> 150	CCCCCCCCCCCCCCCCCCOP(=O)(O)OP(=O)(O)OP(=O)(O)OC[C@H]1O[C@@H](n2cc(Cl)c(=O)[nH]c2=O)C[C@@H]1F [20d]	> 100	–	–	–	–	–	–
> 83.3	> 20	1.27 ± 0.54	0.019 ± 0.019	0.01 ± 0.001	> 150	CCCCCCCCCCCCCCCCCCOP(=O)(O)OP(=O)(O)OP(=O)(O)OC[C@H]1O[C@@H](n2cc(C)c(=O)[nH]c2=O)C[C@@H]1F [20f, γ‐C18‐FLTTP]	> 100	–	–	–	–	–	–
